Test results taken from patent publication EP4772506A1, “COMPOUND FOR REGULATING ACTIVITY OF MICRORNA-124” (Jiangsu Chia Tai Fenghai Pharmaceutical Co., Ltd., priority 2023, dated 2025).

Key:
miR124 = assay: Effect of the compound on miR124 upregulation in PBMCs (qPCR, U6 as internal reference); format: cell-based, human; details: miR-124 expression, 5 µM, 6 days, batches normalized
Procedure: The effect of test compounds on miR124 expression levels was evaluated in human peripheral blood mononuclear cells (PBMCs). […] Test compounds (final concentration: 5 µM) were added for treatment at 37°C, 5% CO2 for 6 days, with medium replacement on day 3. The control group was treated with an equal volume of DMSO under the same conditions.
RNA Extraction: On day 6, cells were collected in a 15 mL centrifuge tube and centrifuged at 400g for 10 min, followed by supernatant removal. […] The upper RNA layer was aspirated into a clean 1.5 mL centrifuge tube (RNase-free), an equal volume of isopropanol was added, and left at room temperature for 10 min to precipitate RNA. Centrifugation at 4°C and 12000g for 10 min yielded a small white pellet at the tube bottom.
Fluorescent quantitative PCR reaction: miRNA quantification was performed using SYBR Green I intercalating fluorescence method, with simultaneous detection of the housekeeping gene U6 transcript level as internal reference.

[1] = tested on: dextran sulfate sodium (DSS)-induced ulcerative colitis; assay: Preventive and therapeutic effects on DSS-induced ulcerative colitis (UC) in mice; format: in vivo, C57BL/6 mice; details: 50 mg/kg qd by gavage; for relative body weight (% of initial): mean ± SEM
Procedure: The preventive and therapeutic effects of the positive drug ABX464 and Compound 23 of the present disclosure on dextran sulfate sodium (DSS)-induced ulcerative colitis were evaluated using a DSS-induced ulcerative colitis (UC) model.
Female C57BL/6 mice (20-22 g) were randomly divided into 7 groups according to body weight after adaptive feeding, as shown in Table 4. On day 1, the mice were switched to 3% DSS feeding. After 10 days of DSS feeding, they were switched back to normal drinking water until day 13. From day 1 to day 13, the mice were continuously administered the corresponding solvents and drugs by gavage. Body weight changes were recorded daily from day 1 to day 13. On day 13, after recording body weight, the mice were dissected to measure colon length. The preventive and therapeutic effects of the test drug on ulcerative colitis in mice were evaluated based on relative body weight change rate and colon length. Table 4. Experimental animal grouping and model induction period

[2] = Pharmacokinetic study in rats (plasma, LC-MS/MS); details: male, Sprague-Dawley (SD), rat, plasma, po, 20 mg/kg
Procedure: • (1) SD male rats were used as test animals.
The administration solvent was a physiological saline solution containing 10% DMSO + 10% polyoxyl castor oil (Cremophor EL). Fasting was maintained for approximately 12 hours prior to administration, and free feeding was allowed 4 hours post-administration, with no water restriction. […] After gently inverting the tube to fully mix the anticoagulant EDTA-K2 with the blood, the tube was immediately placed on wet ice. The plasma was separated by centrifugation immediately after blood collection under the following centrifugation conditions: 4°C, 3500 rpm, and 5 min. The upper plasma layer was transferred and stored at -80°C until sample analysis. […] The pharmacokinetic parameters were calculated from the sample analysis results using WinNonlin software.

AUC(0-t) [2]: 2310 ng·h/mL
Cmax [2]: 727 ng/mL
MRT inf [2]: 2.73 h
Tmax [2]: 2 h
half-life [2]: 0.86 h
Structure (SMILES): FC(F)(F)Oc1ccc(Nc2ccc3cccc(Cl)c3n2)cc1 [ABX464, reference compound]
Average fold change compared to DMSO treatment, Average value (miR124): 6.91
weight loss ([1]; by day 10): 6.02%
relative body weight (% of initial) ([1]; day 1): 100±0.00%
relative body weight (% of initial) ([1]; day 2): 101.6± 0.45%
relative body weight (% of initial) ([1]; day 3): 101.9± 0.47%
relative body weight (% of initial) ([1]; day 4): 101.9± 0.62%
relative body weight (% of initial) ([1]; day 5): 101.1± 0.82%
relative body weight (% of initial) ([1]; day 6): 98.5±0.79%
relative body weight (% of initial) ([1]; day 7): 95.6±1.09%
relative body weight (% of initial) ([1]; day 8): 93.5± 1.35%
relative body weight (% of initial) ([1]; day 9): 93.0±1.33%
relative body weight (% of initial) ([1]; day 10): 94.0± 1.27 %
relative body weight (% of initial) ([1]; day 11): 92.4± 2.22 %
relative body weight (% of initial) ([1]; day 12): 92.7±2.19%
Colon length Mean ([1]; day 13): 7.72 cm
relative body weight (% of initial) ([1]; day 13): 92.0±2.52%
Relative colon length (%) ([1]; of the control group, day 13, 50 mg/kg): 96.5%
